{"source": "patent US5922775A", "about": "“Method of treating malignant tumors with ketone thyroxine analogues having no significant hormonal activity” (priority 1997, dated 1999)", "key": {"[1]": {"tested_on": "human lung cancer cells (A 549)", "assay": "Growth of human lung cancer cells (Table 2 B)", "format": "cell-based", "source_text": "(§1) The effects of these three substances on the growth of human mammary cancer cells (MDA-MB-231) and human lung cancer cells (A 549) are summarized in Table 2.\n(§2) (×10^3) Cell number per 2 cm^2"}, "cellular esterases": {"tested_on": "cellular esterases", "assay": "Stability against cellular esterases", "source_text": "Moreover, amide analogs of DIME, having an NH2 or a substituted amino group, may be subject to hydrolysis catalyzed by cellular amidases. Since the hydrolysis product of such a hydrolysis is a carboxylic acid, the same decrease in efficacy can result. In order to decrease the chemical lability in the DIME pharmacophore structure, ketone analogues of DIME may be used.\nA more detailed kinetic comparison of DIME, DIPE and DIPP on the kinetics of MTP assembly, in a concentration range of zero to 10 μM drug and a louvered GTP concentration (10 μM), is shown in FIG. 3."}, "cancer cells": {"tested_on": "cancer cells", "assay": "Blocking of mitosis in cancer cells", "format": "cell-based"}, "[2]": {"tested_on": "non-malignant mouse pituitary adenoma", "conditions": "cited from earlier work"}, "human cancer cells": {"tested_on": "human cancer cells", "conditions": "cited from earlier work"}, "[3]": {"tested_on": "human mammary cancer cells (MDA-MB-231)", "conditions": "1 mM DIME [sic]; within 18 hours; cited from earlier work"}, "protein phosphatase 2A": {"tested_on": "protein phosphatase 2A", "conditions": "cited from earlier work"}, "[4]": {"tested_on": "human mammary cancer cells (MDA-MB-231)", "assay": "Growth of human mammary cancer cells (Table 2 A)", "format": "cell-based", "conditions": "2 μM", "source_text": "as §1\nIn section (a) of Table 2 the effects of DIME, DIPE and DIPP on the growth of mammary cancer cells, assayed at 48 and 72 hrs, is shown. […] The slightly lesser efficacy of DIPP could be predicted from earlier results obtained with DIME analogs (International Journal of Oncology, 1997, 10, 689-695, FIG. 1) where we have shown that extending the methyl to ethyl substitution (on the carboxyl ester) diminishes cytotoxicity against tumor cells. A similar phenomenon occurs when DIPE is extended to DIPP (i.e. from the ethanone to the propanone).\nas §2"}, "[5]": {"conditions": "oral, 1 g/Kg/day for two to three months; cited from earlier work"}, "thyroid iodine uptake": {"tested_on": "thyroid iodine uptake", "conditions": "rats; as compared to thyroxine; cited from earlier work"}, "Rana pipiens tadpoles": {"tested_on": "Rana pipiens tadpoles", "conditions": "tadpole metamorphosis; cited from earlier work"}, "malignant tumors": {"tested_on": "malignant tumors", "conditions": "cited from earlier work"}}, "note": "Entries after “also recorded” stand apart in the source; their conditions may differ."}
{"molecule": "COC(=O)c1cc(I)c(Oc2ccc(OC)cc2)c(I)c1", "note": "[DIME, methyl 3,5-diiodo-4-(4'-methoxyphenoxy)benzoate]", "values": [{"measurement": "Cell number", "setting": "[1]; 2 μM, 48 hours, control 110", "value": "100 ×10^3 cell number per 2 cm^2 w"}, {"measurement": "Cell number", "setting": "[1]; 2 μM, 72 hours, control 190", "value": "180 ×10^3 cell number per 2 cm^2 w"}, {"measurement": "Cell number", "setting": "[1]; 5 μM + BNPP 150 μM (esterase inhibitor), 48 hours, control 110", "value": "24 ×10^3 cell number per 2 cm^2 w"}, {"measurement": "Cell number", "setting": "[1]; 5 μM + BNPP 150 μM (esterase inhibitor), 72 hours, control 190", "value": "15 ×10^3 cell number per 2 cm^2 w"}, {"measurement": "Cell number", "setting": "[1]; 5 μM, 48 hours, control 110", "value": "72 ×10^3 cell number per 2 cm^2 w"}, {"measurement": "Cell number", "setting": "[1]; 5 μM, 72 hours, control 190", "value": "135 ×10^3 cell number per 2 cm^2 w"}, {"measurement": "effect of esterase inhibitor BNPP on cytocidal action", "setting": "[1]; lung cancer cells, with BNPP", "value": "the esterase inhibitor supported the DIME effect (at 72 hrs)"}, {"measurement": "stability against esterases", "setting": "cellular esterases", "value": "labile with respect to hydrolysis catalyzed by cellular esterases"}, {"measurement": "blocking of mitosis in cancer cells", "setting": "cancer cells", "value": "capable of blocking mitosis in cancer cells"}, {"measurement": "inhibition of growth of non-malignant pituitary tumor", "setting": "[2]", "value": "no inhibitory activity"}, {"measurement": "cytostatic / cytocidal activity", "setting": "human cancer cells; cellular assays and in vivo", "value": "highly active both in cellular assays and in vivo"}, {"measurement": "growth inhibition of malignant cell types", "setting": "human cancer cells", "value": "inhibit the growth of a variety of malignant cell types"}, {"measurement": "tumor cell apoptosis", "setting": "human cancer cells", "value": "induce tumor cell apoptosis preceded by micronucleation"}, {"measurement": "tumoricidal activity in cell cultures", "setting": "human cancer cells", "value": "potential tumoricidal agent both in cell cultures and in vivo"}, {"measurement": "abnormal spindle structures", "setting": "[3]", "value": "induced abnormal spindle structures"}, {"measurement": "activation of protein phosphatase 2A", "setting": "protein phosphatase 2A", "value": "directly activates protein phosphatase 2A"}, {"measurement": "Cell number", "setting": "[4]; 48 hours, control 150", "value": "60 ×10^3 cell number per 2 cm^2 w"}, {"measurement": "Cell number", "setting": "[4]; 72 hours, control 300", "value": "65 ×10^3 cell number per 2 cm^2 w"}, {"measurement": "toxicity", "setting": "[5]", "value": "not toxic"}, {"measurement": "inhibition of uptake of iodine into the thyroid", "setting": "thyroid iodine uptake", "value": 15, "unit": "%"}, {"measurement": "cell differentiating / metamorphogenic activity", "setting": "Rana pipiens tadpoles", "value": "no significant metabolic or metamorphogenic action; also recorded: no significant metabolic or cell differentiating activity"}, {"measurement": "anti-tumor activity in vivo", "setting": "malignant tumors", "value": "potential tumoricidal agent both in cell cultures and in vivo; also recorded: highly active both in cellular assays and in vivo"}]}
